Source: US12226610B2, “Treatment of pain associated with total knee arthroplasty with sustained-release liposomal anesthetic compositions” (Pacira Pharmaceuticals, Inc., priority 2022, dated 2025)
Where a name gives a salt, the structure may show the parent alone.

Assays:
[1] = tested on: subjects undergoing primary unilateral TKA; experiment: Time to first opioid consumption (rescue medication) post-surgery; type: in vivo, human
Description: (§1) This was a Phase 3, multicenter, randomized, double blind, active controlled study of 167 subjects undergoing primary unilateral TKA under spinal anesthesia. The study consisted of 2 cohorts that were enrolled in parallel. Cohort 1 enrolled 46 subjects to obtain information on the PK profile, pharmacodynamics (PD), efficacy, and safety. Cohort 2 enrolled 121 subjects to obtain information on efficacy and safety. An adaptive study design was used in this study, with an interim analysis conducted by an unblinded independent review committee to evaluate sample size assumptions and futility. […]
(§2) An unscheduled pain intensity assessment using the NRS (measured as “On a scale from 0 to 10, where 0 equals no pain and 10 equals the worst possible pain, how much pain are you experiencing in your operative knee right now?”) was to be completed immediately prior to administration of any breakthrough pain medication up to 96 hours post-surgery. Medications were administered as needed; opioids were not to be given on a pre-determined schedule. […]
(§3) Total postsurgical opioid consumption in OMED from 0 to 96 hours was analyzed using an ANCOVA model. Time to first postsurgical opioid medication was analyzed using the Kaplan Meier survival method. […]

[2] = tested on: subjects undergoing primary unilateral TKA; experiment: Safety assessments (TEAEs, SAEs, vital signs, EKG); parameters: species or system human; conditions: in vivo
Source text: Safety assessments included monitoring of AEs (including SAEs and adverse events of special interest [AESIs]), vital signs (temperature, resting heart rate, respiratory rate, oxygen saturation, and blood pressure), 12 lead EKG, and recording of concomitant medications.
Safety endpoints included incidence of treatment emergent adverse events and SAEs from start of the nerve block procedure through POD14; change from baseline in vital signs over time; and abnormal post-baseline EKG findings.
Adverse events and SAEs were recorded from the time of informed consent through POD14. Adverse events were coded using the Medical Dictionary for Regulatory Activities version 24.1 and summary tables were based on the Safety Analysis Set. A subject data listing was provided for all AEs, which included the reported term, preferred term, system organ class, treatment-emergent adverse event flag, study day of AE onset, AE start/stop date and time, relationship to study drug, frequency, severity, action taken with subject, outcome, and seriousness criteria.
Vital signs and their change from baseline were summarized with mean, median, and standard deviation at baseline and at each scheduled time point. The frequency and percentage of EKG findings (normal, abnormal/not clinically significant, and abnormal/clinically significant) were summarized at screening and each scheduled time point.
An AE can be defined as any untoward medical occurrence associated with the use of a drug in humans, whether or not considered drug related. An AE (also referred to as an adverse experience) could be any unfavorable and unintended sign (e.g., abnormal laboratory finding), symptom, or disease temporally associated with the use of a drug, without any judgment about causality. An AE could arise from any use of the drug (e.g., off-label use in combination with another drug) and from any route of administration, formulation, or dose, including an overdose.
An AE that occurred after administration of the study treatment was considered a treatment-emergent adverse event (TEAE). A continuous AE with varying grades of severity was to be recorded as 1 AE. The highest grade of severity experienced by that subject during the course of the continuous AE was to be recorded.
Assessment of the relationship of the AE to study drug after careful medical consideration on a case-by-case basis. […]

[3] = Plasma bupivacaine pharmacokinetics (Cohort 1); type: in vivo, human
Description: (§4) This was a Phase 3, multicenter, randomized, double blind, active controlled study of 167 subjects undergoing primary unilateral TKA under spinal anesthesia. The study consisted of 2 cohorts that were enrolled in parallel. Cohort 1 enrolled 46 subjects to obtain information on the PK profile, pharmacodynamics (PD), efficacy, and safety. Cohort 2 enrolled 121 subjects to obtain information on efficacy and safety. An adaptive study design was used in this study, with an interim analysis conducted by an unblinded independent review committee to evaluate sample size assumptions and futility.
(§5) On the day of surgery, prior to surgery, subjects in Cohort 1 and Cohort 2 were randomized (1:1) to receive an adductor canal block with a single dose of either 10 mL EXPAREL (133 mg) admixed with 10 mL 0.5% bupivacaine HCl (50 mg; from hereon referred to as the EXP133-ADMIX arm) or 10 mL 0.5% bupivacaine HCl (50 mg) mixed with 10 mL normal saline (from hereon referred to as the BUP50 arm). The total dose volume was consistent (20 mL) for all subjects.
(§6) Efficacy assessments included pain intensity scores focused on the operative knee using the Numeric Rating Scale (NRS), total postsurgical opioid consumption in OMED, time to first opioid consumption post-surgery, and subject satisfaction using the International Pain Outcome (IPO). Additionally, blood samples for PK analysis (area under the curve [AUC], maximum plasma concentration [Cmax], time of maximum plasma concentration [Tmax], including early and late Cmax and Tmax (EXP133-ADMIX arm only), apparent terminal elimination half-life [t½e1], apparent clearance [CL/F], and apparent volume of distribution [Vd/F]) and PD assessment data (sensory and motor block) were collected from Cohort 1 subjects.
Pharmacokinetic endpoints included area under the plasma concentration-versus-time curve, specifically from the time of dosing to the time of the last quantifiable concentration (AUC0-last) and AUC from the time of dosing to infinity (AUC0-∞); maximum plasma concentration (Cmax) and time of maximum plasma concentration (Tmax) for subjects treated with bupivacaine HCl; early and late Cmax and Tmax were determined for subjects treated with EXPAREL admixed with bupivacaine HCl (EXP133-ADMIX arm); t½e1; CL/F; Vd/F.

[4] = tested on: sensory block and motor block; experiment: Pharmacodynamic assessment of sensory and motor block (Cohort 1); type: in vivo, human
Description: as §4, §5, §6
Pharmacodynamic endpoints included: duration of the sensory block and motor block; time to onset of sensory block and motor block; and time to offset of sensory block and motor block.

[5] = tested on: subjects undergoing primary unilateral TKA; experiment: Total postsurgical opioid consumption (OMED) and opioid-free status; type: in vivo, human; conditions: any time interval up to 96 hours post-surgery
Description: as §1, §2, §3

SMILES: CCCCN1CCCCC1C(=O)Nc1c(C)cccc1C (stereo not drawn) [BUP50, bupivacaine HCl]
- median time to first rescue medication [1]: 3.63 h
- subjects with clinically significant abnormal EKG findings ([2]; human): 1 subjects
- subjects with ≥1 TEAE ([2]; human): 88.8%
- subjects with ≥1 TEAE related to study drug ([2]; human): 2 subjects
- subjects discontinued from the study following SAEs [2]: One
- AUC(0-inf) ([3]; human, in vivo): 7450 ng·h/mL
- AUC(0-t) ([3]; human, in vivo): 7280 ng·h/mL
- concentration at 60 h ([3]; human, in vivo): 43.2 ng/mL
- median time of Cmax ([3]; human, in vivo): 0.65 h
- shape of mean bupivacaine concentration over time ([3]; in vivo): a single peak
- Cmax ([3]; plasma bupivacaine): 333.89 ng/mL
- subjects in whom knee extension was not present ([4]; 8 hours post dose (first time point with majority)): 71.4%
- median duration of sensory block ([4]; in vivo): 11.63 h
- time by which all subjects regained normal sensory function ([4]; post-dose): ≤ 24 h
- subjects opioid free [5]: No subjects
